Measured values reported in US20240132521A1, “COMPOUNDS AND METHODS FOR MODULATING HER2” (Iambic Therapeutics, Inc., priority 2022, published 2024).

What was measured:
Type in all cases: cell-based
BaF3_HER2WT cells = BaF3_HER2WT cells (Homo sapiens, UniProt P04626); assay: Cell growth inhibition assay (CellTiterGlo), BaF3_HER2WT; details: cell growth inhibition, 3 days treatment, read-out: HER2 WT IC50
BaF3_EGFRWT cells = BaF3_EGFRWT cells (Homo sapiens, UniProt P00533); assay: Cell growth inhibition assay (CellTiterGlo), BaF3_EGFRWT; details: cell growth inhibition, 80 ng/mL EGF, 3 days treatment, read-out: EGFR WT IC50
BaF3_HER2YVMA cells = BaF3_HER2YVMA cells (Homo sapiens, UniProt P04626, DUP772-775, cells depend on it); assay: Cell growth inhibition assay (CellTiterGlo), BaF3_HER2YVMA; details: cell growth inhibition, 3 days treatment, read-out: HER2 - YVMA IC50
Sequence of BaF3_HER2YVMA cells (P04626 with tags, fused parts or gaps DUP772-775): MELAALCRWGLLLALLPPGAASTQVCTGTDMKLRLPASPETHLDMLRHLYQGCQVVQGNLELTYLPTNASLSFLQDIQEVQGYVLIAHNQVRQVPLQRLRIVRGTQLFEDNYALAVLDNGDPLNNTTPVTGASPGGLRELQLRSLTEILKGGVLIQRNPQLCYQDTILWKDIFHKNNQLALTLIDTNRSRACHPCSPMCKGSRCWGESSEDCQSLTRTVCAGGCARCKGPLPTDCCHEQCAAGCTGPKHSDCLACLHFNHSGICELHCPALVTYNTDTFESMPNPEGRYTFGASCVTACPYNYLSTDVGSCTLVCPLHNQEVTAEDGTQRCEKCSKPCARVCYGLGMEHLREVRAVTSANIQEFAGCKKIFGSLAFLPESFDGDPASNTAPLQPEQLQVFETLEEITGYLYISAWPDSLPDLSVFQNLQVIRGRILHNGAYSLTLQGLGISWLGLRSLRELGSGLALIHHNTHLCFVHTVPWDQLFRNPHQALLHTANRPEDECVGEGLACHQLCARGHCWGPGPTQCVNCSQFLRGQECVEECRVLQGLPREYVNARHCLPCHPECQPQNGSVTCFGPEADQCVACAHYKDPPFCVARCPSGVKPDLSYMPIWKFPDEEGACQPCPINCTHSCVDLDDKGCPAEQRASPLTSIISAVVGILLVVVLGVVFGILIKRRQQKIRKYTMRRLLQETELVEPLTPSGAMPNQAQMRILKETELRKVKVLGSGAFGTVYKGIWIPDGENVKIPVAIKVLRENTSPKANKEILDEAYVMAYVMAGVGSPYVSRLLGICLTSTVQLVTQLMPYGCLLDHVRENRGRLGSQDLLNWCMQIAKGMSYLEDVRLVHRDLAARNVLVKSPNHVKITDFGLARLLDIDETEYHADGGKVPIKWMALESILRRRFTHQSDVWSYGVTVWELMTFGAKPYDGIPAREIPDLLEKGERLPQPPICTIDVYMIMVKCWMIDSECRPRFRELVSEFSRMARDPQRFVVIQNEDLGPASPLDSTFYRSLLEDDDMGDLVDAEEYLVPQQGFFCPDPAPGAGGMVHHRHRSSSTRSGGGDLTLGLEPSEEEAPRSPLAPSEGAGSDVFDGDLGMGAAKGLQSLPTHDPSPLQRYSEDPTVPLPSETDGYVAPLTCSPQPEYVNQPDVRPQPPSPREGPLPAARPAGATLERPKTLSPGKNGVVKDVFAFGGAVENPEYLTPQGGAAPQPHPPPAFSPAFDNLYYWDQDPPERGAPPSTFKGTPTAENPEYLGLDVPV

Sequence of BaF3_HER2WT cells (P04626 whole entry, change not shown): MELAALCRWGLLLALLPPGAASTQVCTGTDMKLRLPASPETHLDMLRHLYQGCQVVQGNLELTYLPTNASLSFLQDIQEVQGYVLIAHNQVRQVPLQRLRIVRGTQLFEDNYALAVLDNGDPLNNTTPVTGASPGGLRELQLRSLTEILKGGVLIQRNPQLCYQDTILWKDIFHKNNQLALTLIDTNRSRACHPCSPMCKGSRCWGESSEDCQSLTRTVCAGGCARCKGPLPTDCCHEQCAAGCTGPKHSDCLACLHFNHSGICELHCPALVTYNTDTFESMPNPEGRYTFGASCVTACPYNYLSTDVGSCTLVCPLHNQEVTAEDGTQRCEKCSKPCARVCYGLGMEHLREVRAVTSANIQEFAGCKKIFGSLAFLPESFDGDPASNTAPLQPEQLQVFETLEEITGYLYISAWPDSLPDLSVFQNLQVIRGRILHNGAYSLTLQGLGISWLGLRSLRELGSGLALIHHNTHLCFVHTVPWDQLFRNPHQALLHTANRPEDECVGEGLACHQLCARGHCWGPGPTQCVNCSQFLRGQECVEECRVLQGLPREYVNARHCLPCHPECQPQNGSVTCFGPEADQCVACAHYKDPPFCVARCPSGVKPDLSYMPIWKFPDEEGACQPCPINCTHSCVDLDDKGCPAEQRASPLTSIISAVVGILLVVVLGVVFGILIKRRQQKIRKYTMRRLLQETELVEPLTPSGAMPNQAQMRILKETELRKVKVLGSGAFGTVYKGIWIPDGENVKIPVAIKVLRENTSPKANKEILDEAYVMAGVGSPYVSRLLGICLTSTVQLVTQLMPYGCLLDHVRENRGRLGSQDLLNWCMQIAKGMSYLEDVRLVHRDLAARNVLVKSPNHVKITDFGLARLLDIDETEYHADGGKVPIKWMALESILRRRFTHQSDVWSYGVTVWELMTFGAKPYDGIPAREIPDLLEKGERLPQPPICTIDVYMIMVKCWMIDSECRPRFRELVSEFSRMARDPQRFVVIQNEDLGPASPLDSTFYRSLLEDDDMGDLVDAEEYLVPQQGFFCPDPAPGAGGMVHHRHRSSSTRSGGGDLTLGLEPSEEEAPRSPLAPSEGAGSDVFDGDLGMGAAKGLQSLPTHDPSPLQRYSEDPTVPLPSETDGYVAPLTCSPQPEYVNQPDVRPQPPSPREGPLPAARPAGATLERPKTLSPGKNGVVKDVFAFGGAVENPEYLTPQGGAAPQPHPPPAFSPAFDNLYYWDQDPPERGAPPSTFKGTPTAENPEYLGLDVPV
Sequence of BaF3_EGFRWT cells (P00533 whole entry, change not shown): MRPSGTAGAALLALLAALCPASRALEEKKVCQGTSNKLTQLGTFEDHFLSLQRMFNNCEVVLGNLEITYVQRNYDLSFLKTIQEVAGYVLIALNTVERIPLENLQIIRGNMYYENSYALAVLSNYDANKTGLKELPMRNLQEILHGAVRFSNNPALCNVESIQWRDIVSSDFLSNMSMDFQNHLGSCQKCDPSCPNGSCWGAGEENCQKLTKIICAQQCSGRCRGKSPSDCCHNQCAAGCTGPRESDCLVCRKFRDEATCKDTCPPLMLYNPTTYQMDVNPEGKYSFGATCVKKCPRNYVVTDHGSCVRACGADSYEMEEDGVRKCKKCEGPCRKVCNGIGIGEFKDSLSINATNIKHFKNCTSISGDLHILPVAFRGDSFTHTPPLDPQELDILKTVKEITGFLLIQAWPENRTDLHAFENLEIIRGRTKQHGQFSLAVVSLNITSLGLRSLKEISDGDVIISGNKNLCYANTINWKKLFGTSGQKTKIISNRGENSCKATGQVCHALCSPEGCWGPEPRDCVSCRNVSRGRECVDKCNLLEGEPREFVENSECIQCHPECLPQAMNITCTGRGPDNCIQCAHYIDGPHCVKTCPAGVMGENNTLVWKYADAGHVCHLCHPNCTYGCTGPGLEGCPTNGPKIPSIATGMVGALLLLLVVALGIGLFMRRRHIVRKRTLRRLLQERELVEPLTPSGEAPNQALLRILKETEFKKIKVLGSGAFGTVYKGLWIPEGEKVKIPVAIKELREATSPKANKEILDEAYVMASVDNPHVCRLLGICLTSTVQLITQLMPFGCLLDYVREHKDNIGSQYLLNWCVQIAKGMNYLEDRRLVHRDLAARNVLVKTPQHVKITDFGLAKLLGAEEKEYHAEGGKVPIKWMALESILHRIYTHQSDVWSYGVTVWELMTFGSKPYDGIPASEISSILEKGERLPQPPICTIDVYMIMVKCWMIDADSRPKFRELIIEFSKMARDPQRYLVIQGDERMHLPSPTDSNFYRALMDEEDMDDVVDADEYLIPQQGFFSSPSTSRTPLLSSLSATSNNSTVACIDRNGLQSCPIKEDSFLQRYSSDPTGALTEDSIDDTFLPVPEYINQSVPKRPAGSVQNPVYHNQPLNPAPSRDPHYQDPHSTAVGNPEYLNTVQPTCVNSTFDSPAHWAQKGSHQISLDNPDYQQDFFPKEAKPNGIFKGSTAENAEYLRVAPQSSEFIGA

SMILES	GI50 (BaF3_HER2WT cells) [µM]	GI50 (BaF3_EGFRWT cells) [µM]	GI50 (BaF3_HER2YVMA cells) [µM]
Cc1cc(Nc2ncnn3ccc(C4CCCN(C(=O)/C=C/CN(C)C)C4)c23)ccc1Oc1ccn2ncnc2c1 (single isomer, unassigned) [Examples 107 and 108, second eluting isomer, (E)-1-(3-(4-((4-([1,2,4]triazolo[1,5-a]pyridin-7-yloxy)-3-methylphenyl)amino)pyrrolo[2,1-f][1,2,4]triazin-5-yl)piperidin-1-yl)-4-(dimethylamino)but-2-en-1-one]	0.5 to 1.5	1.5 to 5	1.5 to 5
C=CC(=O)N1C2CCC1CC(c1ccn3ncnc(Nc4ccc(Oc5ccn6ncnc6c5)c(C)c4)c13)C2 (single isomer, unassigned) [Examples 124 and 125, first eluting isomer, 1-(3-(4-((4-([1,2,4]triazolo[1,5-a]pyridin-7-yloxy)-3-methylphenyl)amino)pyrrolo[2,1-f][1,2,4]triazin-5-yl)-8-azabicyclo[3.2.1]octan-8-yl)prop-2-en-1-one]	< 0.2	< 0.2	< 0.2
C=C(CN(C)C)C(=O)N1C2CCC1CC(c1ccn3ncnc(Nc4ccc(Oc5ccn6ncnc6c5)c(C)c4)c13)C2 (single isomer, unassigned) [Examples 126 and 127, second eluting isomer, 1-(3-(4-((4-([1,2,4]triazolo[1,5-a]pyridin-7-yloxy)-3-methylphenyl)amino)pyrrolo[2,1-f][1,2,4]triazin-5-yl)-8-azabicyclo[3.2.1]octan-8-yl)-2-((dimethylamino)methyl)prop-2-en-1-one]	0.2 to 0.5	1.5 to 5	0.5 to 1.5
Cc1cc(Nc2ncnn3ccc(C4CC5CCC4CN5C(=O)/C=C/CN(C)C)c23)ccc1Oc1ccn2ncnc2c1 (single isomer, unassigned) [Examples 137 and 138, second eluting isomer, (E)-1-(5-(4-((4-([1,2,4]triazolo[1,5-a]pyridin-7-yloxy)-3-methylphenyl)amino)pyrrolo[2,1-f][1,2,4]triazin-5-yl)-2-azabicyclo[2.2.2]octan-2-yl)-4-(dimethylamino)but-2-en-1-one]	0.5 to 1.5	1.5 to 5	1.5 to 5
C=CC(=O)N1CC2CCC1CC2c1ccn2ncnc(Nc3ccc(Oc4ccn5ncnc5c4)c(C)c3)c12 (single isomer, unassigned) [Examples 139 and 140, first eluting isomer, 1-(5-(4-((4-([1,2,4]triazolo[1,5-a]pyridin-7-yloxy)-3-methylphenyl)amino)pyrrolo[2,1-f][1,2,4]triazin-5-yl)-2-azabicyclo[2.2.2]octan-2-yl)prop-2-en-1-one]	< 0.2	1.5 to 5	< 0.2
C=CC(=O)N1CC2CCC1CC2c1ccn2ncnc(Nc3ccc(Oc4ccn5ncnc5c4)c(C)c3)c12 (single isomer, unassigned) [Examples 139 and 140, second eluting isomer, 1-(5-(4-((4-([1,2,4]triazolo[1,5-a]pyridin-7-yloxy)-3-methylphenyl)amino)pyrrolo[2,1-f][1,2,4]triazin-5-yl)-2-azabicyclo[2.2.2]octan-2-yl)prop-2-en-1-one]	0.5 to 1.5	1.5 to 5	1.5 to 5
C=C(CN(C)C)C(=O)N1CCCC(c2ccn3ncnc(Nc4ccc(Oc5ccn6ncnc6c5)c(C)c4)c23)CC1 (single isomer, unassigned) [Examples 143 and 144, first eluting isomer, 1-(4-(4-((4-([1,2,4]triazolo[1,5-a]pyridin-7-yloxy)-3-methylphenyl)amino)pyrrolo[2,1-f][1,2,4]triazin-5-yl)azepan-1-yl)-2-((dimethylamino)methyl)prop-2-en-1-one]	< 0.2	1.5 to 5	0.5 to 1.5
C=C(CN(C)C)C(=O)N1CCCC(c2ccn3ncnc(Nc4ccc(Oc5ccn6ncnc6c5)c(C)c4)c23)CC1 (single isomer, unassigned) [Examples 143 and 144, second eluting isomer, 1-(4-(4-((4-([1,2,4]triazolo[1,5-a]pyridin-7-yloxy)-3-methylphenyl)amino)pyrrolo[2,1-f][1,2,4]triazin-5-yl)azepan-1-yl)-2-((dimethylamino)methyl)prop-2-en-1-one]	< 0.2	1.5 to 5	< 0.2
Cc1cc(Nc2ncnn3ccc(C4CCCN(C(=O)C(F)Cl)CC4)c23)ccc1Oc1ccn2ncnc2c1 (single isomer, unassigned) [Examples 145, 146, 147 and 148, first eluting isomer, 1-(4-(4-((4-([1,2,4]triazolo[1,5-a]pyridin-7-yloxy)-3-methylphenyl)amino)pyrrolo[2,1-f][1,2,4]triazin-5-yl)azepan-1-yl)-2-chloro-2-fluoroethan-1-one]	< 0.2	1.5 to 5	0.2 to 0.5
Cc1cc(Nc2ncnn3ccc([C@@H]4CCCN(C(=O)[C@H](F)Cl)CC4)c23)ccc1Oc1ccn2ncnc2c1 (single isomer, unassigned) [Examples 145, 146, 147 and 148, fourth eluting isomer]	0.2 to 0.5	1.5 to 5	0.5 to 1.5

Continued, values first:

GI50 (BaF3_HER2WT cells) [µM]	GI50 (BaF3_EGFRWT cells) [µM]	GI50 (BaF3_HER2YVMA cells) [µM]	SMILES
< 0.2	1.5 to 5	0.5 to 1.5	Cc1cc(Nc2ncnn3ccc(C4CCCN(C(=O)/C=C/CN(C)C)C4)c23)ccc1Oc1ccn2ncnc2c1 (single isomer, unassigned) [Examples 107 and 108, first eluting isomer, (E)-1-(3-(4-((4-([1,2,4]triazolo[1,5-a]pyridin-7-yloxy)-3-methylphenyl)amino)pyrrolo[2,1-f][1,2,4]triazin-5-yl)piperidin-1-yl)-4-(dimethylamino)but-2-en-1-one]
< 0.2	1.5 to 5	< 0.2	Cc1cc(Nc2ncnn3ccc(C4CCCN(C(=O)/C=C/CN(C)C)CC4)c23)ccc1Oc1ccn2ncnc2c1 (single isomer, unassigned) [Examples 109 and 110, first eluting isomer, (E)-1-(4-(4-((4-([1,2,4]triazolo[1,5-a]pyridin-7-yloxy)-3-methylphenyl)amino)pyrrolo[2,1-f][1,2,4]triazin-5-yl)azepan-1-yl)-4-(dimethylamino)but-2-en-1-one]
< 0.2	1.5 to 5	< 0.2	C=CC(=O)N1CCCC(c2ccn3ncnc(Nc4ccc(Oc5ccn6ncnc6c5)c(C)c4)c23)CC1 (single isomer, unassigned) [Examples 111 and 112, first eluting isomer, 1-(4-(4-((4-([1,2,4]triazolo[1,5-a]pyridin-7-yloxy)-3-methylphenyl)amino)pyrrolo-[2,1-f][1,2,4]triazin-5-yl)azepan-1-yl)prop-2-en-1-one]
< 0.2	0.5 to 1.5	< 0.2	Cc1cc(Nc2ncnn3ccc(C4CC5CCC(C4)N5C(=O)/C=C/CN(C)C)c23)ccc1Oc1ccn2ncnc2c1 (single isomer, unassigned) [Examples 122 and 123, first eluting isomer, (E)-1-(−3-(4-((4-([1,2,4]triazolo[1,5-a]pyridin-7-yloxy)-3-methylphenyl)amino)pyrrolo[2,1-f][1,2,4]triazin-5-yl)-8-azabicyclo[3.2.1]octan-8-yl)-4-(dimethylamino)but-2-en-1-one]
< 0.2	1.5 to 5	0.2 to 0.5	Cc1cc(Nc2ncnn3ccc(C4CC5CCC(C4)N5C(=O)/C=C/CN(C)C)c23)ccc1Oc1ccn2ncnc2c1 (single isomer, unassigned) [Examples 122 and 123, second eluting isomer, (E)-1-(3-(4-((4-([1,2,4]triazolo[1,5-a]pyridin-7-yloxy)-3-methylphenyl)amino)pyrrolo[2,1-f][1,2,4]triazin-5-yl)-8-azabicyclo[3.2.1]octan-8-yl)-4-(dimethylamino)but-2-en-1-one]
< 0.2	1.5 to 5	0.2 to 0.5	C=C(CN(C)C)C(=O)N1C2CCC1CC(c1ccn3ncnc(Nc4ccc(Oc5ccn6ncnc6c5)c(C)c4)c13)C2 (single isomer, unassigned) [Examples 126 and 127, first eluting isomer, 1-(3-(4-((4-([1,2,4]triazolo[1,5-a]pyridin-7-yloxy)-3-methylphenyl)amino)pyrrolo[2,1-f][1,2,4]triazin-5-yl)-8-azabicyclo[3.2.1]octan-8-yl)-2-((dimethylamino)methyl)prop-2-en-1-one]
< 0.2	1.5 to 5	< 0.2	C=C(CN(C)C)C(=O)N1CC2CCC1CC2c1ccn2ncnc(Nc3ccc(Oc4ccn5ncnc5c4)c(C)c3)c12 (single isomer, unassigned) [Examples 135 and 136, first eluting isomer, 1-(5-(4-((4-([1,2,4]triazolo[1,5-a]pyridin-7-yloxy)-3-methylphenyl)amino)pyrrolo[2,1-f][1,2,4]triazin-5-yl)-2-azabicyclo[2.2.2]octan-2-yl)-2-((dimethylamino)methyl)prop-2-en-1-one]
< 0.2	< 0.2	0.2 to 0.5	C=C(CN(C)C)C(=O)N1CC2CCC1CC2c1ccn2ncnc(Nc3ccc(Oc4ccn5ncnc5c4)c(C)c3)c12 (single isomer, unassigned) [Examples 135 and 136, second eluting isomer, 1-(5-(4-((4-([1,2,4]triazolo[1,5-a]pyridin-7-yloxy)-3-methylphenyl)amino)pyrrolo[2,1-f][1,2,4]triazin-5-yl)-2-azabicyclo[2.2.2]octan-2-yl)-2-((dimethylamino)methyl)prop-2-en-1-one]
